Test results reported in patent US12285407B2, “Bis-indolylmethane derivatives and uses thereof” (The University of The West Indies, priority 2018, dated 2025).
Read-outs that look alike come from different tables or passages of the source.

Experiments:
[1] = test system: clinical antibiotic resistant isolates of MRSA; experiment: Checkerboard resistance breaking by SP-BIM 13; type: cell-based, Staphylococcus aureus; conditions: for FIC compound: SP-BIM 13 with the labelled antibiotic; for Interpretation / Σ FIC: antibiotic + SP-BIM 13; for MIC of antibiotic only: antibiotic alone; for FIC antibiotic: combination with SP-BIM 13; for MIC of antibiotic in combination: with SP-BIM 13 at rescue concentration
[2] = test system: Streptococcus pneumoniae; experiment: Checkerboard synergy (FICI) of antibiotics with SP-BIM; type: cell-based; conditions: for MIC: 24 h, antibiotic alone, read-out: MIC antibiotic only
[3] = test system: clinical antibiotic resistant isolates of Enterococcus faecium; experiment: Checkerboard resistance breaking by SP-BIM 13; type: cell-based; conditions: E. faecium strain 22870
[4] = Streptococcus pneumonia (title: Streptococcus pyogenes), antibiotic + SP-BIM 9
[5] = Streptococcus pneumoniae, antibiotic + SP-BIM 13

SMILES: CC1(C)S[C@@H]2[C@H](NC(=O)[C@H](N)c3ccccc3)C(=O)N2[C@H]1C(=O)O [Ampicillin, ampicillin]
- FIC compound ([1]; MRSA strain 1594): 0.128
- Interpretation ([1]; MRSA strain 1594): Synergy (Synergy: FICI≤0.5)
- Σ FIC ([1]; MRSA strain 1594): <0.14
- MIC of antibiotic only ([1]; MRSA strain 1594): 250 µg/mL
- FIC antibiotic ([1]; MRSA strain 1594): 0.016
- MIC of antibiotic in combination ([1]; MRSA strain 1594): 4 µg/mL
- FIC compound ([1]; MRSA strain 1621): 0.128
- Interpretation ([1]; MRSA strain 1621): Synergy (Synergy: FICI≤0.5)
- Σ FIC ([1]; MRSA strain 1621): <0.13
- MIC of antibiotic only ([1]; MRSA strain 1621): 250 µg/mL
- FIC antibiotic ([1]; MRSA strain 1621): 0.002
- MIC of antibiotic in combination ([1]; MRSA strain 1621): 0.5 µg/mL
- FIC compound ([1]; MRSA strain 5455): 0.252
- Interpretation ([1]; MRSA strain 5455): Synergy (Synergy: FICI≤0.5)
- Σ FIC ([1]; MRSA strain 5455): <0.26
- MIC of antibiotic only ([1]; MRSA strain 5455): 250 µg/mL
- FIC antibiotic ([1]; MRSA strain 5455): 0.004
- MIC of antibiotic in combination ([1]; MRSA strain 5455): 1 µg/mL
- FIC compound ([1]; MRSA strain 5872): 0.128
- Interpretation ([1]; MRSA strain 5872): Synergy (Synergy: FICI≤0.5)
- Σ FIC ([1]; MRSA strain 5872): <0.13
- MIC of antibiotic only ([1]; MRSA strain 5872): 250 µg/mL
- FIC antibiotic ([1]; MRSA strain 5872): 0.002
- MIC of antibiotic in combination ([1]; MRSA strain 5872): 0.5 µg/mL
- FIC compound ([1]; MRSA strain 7153): 0.252
- Interpretation ([1]; MRSA strain 7153): Synergy (Synergy: FICI≤0.5)
- Σ FIC ([1]; MRSA strain 7153): <0.25
- MIC of antibiotic only ([1]; MRSA strain 7153): 250 µg/mL
- FIC antibiotic ([1]; MRSA strain 7153): 0.002
- MIC of antibiotic in combination ([1]; MRSA strain 7153): 0.5 µg/mL
- FIC compound ([1]; MRSA strain 7172): 0.128
- Interpretation ([1]; MRSA strain 7172): Synergy (Synergy: FICI≤0.5)
- Σ FIC ([1]; MRSA strain 7172): <0.14
- MIC of antibiotic only ([1]; MRSA strain 7172): 250 µg/mL
- FIC antibiotic ([1]; MRSA strain 7172): 0.008
- MIC of antibiotic in combination ([1]; MRSA strain 7172): 2 µg/mL
- FIC compound ([1]; MRSA strain 7698): 0.128
- Interpretation ([1]; MRSA strain 7698): Synergy (Synergy: FICI≤0.5)
- Σ FIC ([1]; MRSA strain 7698): <0.14
- MIC of antibiotic only ([1]; MRSA strain 7698): 250 µg/mL
- FIC antibiotic ([1]; MRSA strain 7698): 0.008
- MIC of antibiotic in combination ([1]; MRSA strain 7698): 2 µg/mL
- FIC compound ([1]; MRSA strain 10132): 0.064
- Interpretation ([1]; MRSA strain 10132): Synergy (Synergy: FICI≤0.5)
- Σ FIC ([1]; MRSA strain 10132): <0.07
- MIC of antibiotic only ([1]; MRSA strain 10132): 250 µg/mL
- FIC antibiotic ([1]; MRSA strain 10132): 0.002
- MIC of antibiotic in combination ([1]; MRSA strain 10132): 0.5 µg/mL
- MIC of antibiotic without SP-BIM 13 ([1]; clinical MRSA strains): ≥ 250 µg/mL
- FIC of SP-BIM 9 ([2]; Streptococcus pneumonia (title: Streptococcus pyogenes), SP-BIM 9 in combination with the labelled antibiotic): 0.06
- Interpretation [2, 4]: Synergy (Synergy: FICI≤0.5)
- Σ FIC [2, 4]: <0.06
- MIC in combination, Antibiotic ([2]; Streptococcus pneumonia (title: Streptococcus pyogenes), antibiotic in combination with SP-BIM 9): 0.1 µg/mL
- FIC of antibiotic ([2]; Streptococcus pneumonia (title: Streptococcus pyogenes), in combination with SP-BIM 9): 0.00
- MIC ([2]; Streptococcus pneumoniae, Streptococcus pneumonia (title: Streptococcus pyogenes), SP-BIM 9 checkerboard): > 250 µg/mL
- MIC ([2]; Streptococcus pneumoniae, Streptococcus pneumoniae, SP-BIM 13 checkerboard): 250 µg/mL
- FIC of SP-BIM 13 ([2]; Streptococcus pneumoniae, SP-BIM 13 in combination with the labelled antibiotic): 0.3
- Interpretation [2, 5]: Synergy (Synergy: FICI≤0.5)
- Σ FIC [2, 5]: <0.3
- MIC in combination, Antibiotic ([2]; Streptococcus pneumoniae, antibiotic in combination with SP-BIM 13): 2 µg/mL
- FIC of antibiotic ([2]; Streptococcus pneumoniae, in combination with SP-BIM 13): 0.0
- FIC compound ([3]; SP-BIM 13 with the labelled antibiotic): 0.128
- Interpretation ([3]; antibiotic + SP-BIM 13): Synergy (Synergy: FICI≤0.5)
- Σ FIC ([3]; antibiotic + SP-BIM 13): <0.14
